Experimental data from patent US9815787B2, “Sulfonamide derivative or pharmaceutically acceptable acid addition salt thereof” (UNIVERSITY OF TSUKUBA, priority 2013, dated 2017).
One block for each molecule: values may come before it.

Molecular target: T1, OX2R (Homo sapiens, UniProt O43614)
T1 construct: expressed in transfected cells; host or cells: CHO (Chinese hamster ovary) cells constitutively expressing the OX2R gene and NFAT-luciferase (CHOOX2R)
T1 sequence (O43614 1-444): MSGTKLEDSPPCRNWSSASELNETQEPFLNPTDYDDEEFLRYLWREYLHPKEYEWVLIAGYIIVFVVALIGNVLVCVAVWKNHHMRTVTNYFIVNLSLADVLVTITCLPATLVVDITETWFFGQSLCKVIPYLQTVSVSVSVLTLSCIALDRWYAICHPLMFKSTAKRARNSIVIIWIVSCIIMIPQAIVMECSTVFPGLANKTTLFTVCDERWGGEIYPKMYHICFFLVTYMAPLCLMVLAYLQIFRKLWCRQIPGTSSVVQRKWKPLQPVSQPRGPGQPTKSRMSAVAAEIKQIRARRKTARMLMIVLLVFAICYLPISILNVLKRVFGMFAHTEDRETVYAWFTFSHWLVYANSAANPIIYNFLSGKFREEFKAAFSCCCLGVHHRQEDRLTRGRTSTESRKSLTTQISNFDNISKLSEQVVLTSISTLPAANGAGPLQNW
Assay: Evaluation of agonist activity against OX2R (CHOOX2R cells, Fura2AM fluorescence, FDSS3000)
Assay type: cell-based
Outline: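 CHO cells stably expressing human OX2R (and NFAT-luciferase), cultured 48 h in 5% FBS DMEM. Agonist response read as change in Fura2AM fluorescence on compound addition in HEPES buffer. Final compound concentrations 0.1, 1.0 or 10 μM; 1% DMSO.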

[1] = OX2R agonist activity; CHOOX2R cells
[2] = conversion with orexin-A as full agonist (maximum agonist activity 100%)
[3] = test compound 0.1 μM; CHOOX2R cells; relative to orexin-A as full agonist (100%)
[4] = test compound 1.0 μM; CHOOX2R cells; relative to orexin-A as full agonist (100%)
[5] = test compound 10 μM; CHOOX2R cells; relative to orexin-A as full agonist (100%)
[6] = test compound 0.1 μM; relative to orexin-A as full agonist (100%); CHOOX2R cells
[7] = test compound 1.0 μM; relative to orexin-A as full agonist (100%); CHOOX2R cells
[8] = test compound 10 μM; relative to orexin-A as full agonist (100%); CHOOX2R cells

Structure (SMILES): COc1cc(C)c(-c2cccc(C(=O)N(C)C)c2)cc1S(=O)(=O)Nc1cccc(NCCNC(=O)c2ccccc2Cl)c1 [Example 104, 5′-(N-(3-((2-(2-chlorobenzamido)ethyl)amino)phenyl)sulfamoyl)-4′-methoxy-N,N,2′-trimethyl-[1,1′-biphenyl]-3-carboxamide]
Response (0.1 μM (%)) [6]: 67%
Response (1.0 μM (%)) [7]: 88%
Response (10 μM (%)) [8]: 86%

Structure (SMILES): COc1cc(C)c(-c2cccc(C(=O)N(C)C)c2)cc1S(=O)(=O)Nc1cccc(NCCNC(=O)c2cccc(F)c2)c1 [Example 102, 5′-(N-(3-((2-(3-fluorobenzamido)ethyl)amino)phenyl)sulfamoyl)-4′-methoxy-N,N,2′-trimethyl-[1,1′-biphenyl]-3-carboxamide]
Response (0.1 μM (%)) [6]: 61%
Response (1.0 μM (%)) [7]: 83%
Response (10 μM (%)) [8]: 85%

Structure (SMILES): COc1ccc(-c2cccc(C(=O)N(C)C)c2)cc1S(=O)(=O)Nc1cccc(NCCNC(=O)c2cccc(C#N)c2)c1 [Example 72, 3′-(N-(3-((2-(3-cyanobenzamido)ethyl)amino)phenyl)sulfamoyl)-4′-methoxy-N,N-dimethyl-[1,1′-biphenyl]-3-carboxamide]
Response (0.1 μM (%)) [3]: <5%
Response (1.0 μM (%)) [4]: 16%
Response (10 μM (%)) [5]: 88%

Structure (SMILES): COc1ccc(N(C)C)cc1C(=O)NCCNc1cccc(NS(=O)(=O)c2cc(-c3ccccc3F)ccc2OC)c1 [Example 5, 5-(dimethylamino)-N-(2-((3-(2′-fluoro-4-methoxy-[1,1′-biphenyl]-3-ylsulfonamide)phenyl)amino)ethyl)-2-methoxybenzamide]
Response (0.1 μM (%)) [6]: <5%
Response (1.0 μM (%)) [7]: <5%
Response (10 μM (%)) [8]: 23%

Structure (SMILES): COc1ccc(-c2ccccc2F)cc1S(=O)(=O)Nc1cccc(NCCNC(=O)c2ccc(Cl)cc2)c1 [Example 9, 4-chloro-N-(2-((3-(2′-fluoro-4-methoxy-[1,1′-biphenyl]-3-ylsulfonamide)phenyl)amino)ethyl)benzamide]
Response (0.1 μM (%)) [6]: <5%
Response (1.0 μM (%)) [7]: <5%
Response (10 μM (%)) [8]: <5%

Structure (SMILES): COc1ccccc1C(=O)NCCNc1cccc(NS(=O)(=O)c2cc(-c3cccc(C(=O)N4CCCCC4)c3)ccc2OC)c1 [Example 80, 2-methoxy-N-(2-((3-(4-methoxy-3′-(piperidine-1-carbonyl)-1-[1,1′-biphenyl]-3-ylsulfonamido)phenyl)amino)ethyl)benzamide]
Response (0.1 μM (%)) [3]: 37%
Response (1.0 μM (%)) [4]: 91%
Response (10 μM (%)) [5]: 91%

Structure (SMILES): COc1ccc(-c2cccc(C(=O)N3CCC3)c2)cc1S(=O)(=O)Nc1cccc(NCCNC(=O)c2cccc(F)c2)c1 [Example 84, N-(2-((3-(3′-(azetidine-1-carbonyl)-4-methoxy-[1,1′-biphenyl]-3-ylsulfonamido)phenyl)amino)ethyl)-3-fluorobenzamide]
Response (0.1 μM (%)) [3]: 7%
Response (1.0 μM (%)) [4]: 58%
Response (10 μM (%)) [5]: 70%

Structure (SMILES): COc1cccc(C(=O)NCCNc2cccc(NS(=O)(=O)c3cc(-c4ccccc4F)ccc3OC)c2)c1 [Example 2, N-(2-((3-(2′-fluoro-4-methoxy-[1,1′-biphenyl]-3-ylsulfonamide)phenyl)amino)ethyl)-3-methoxybenzamide]
Response (0.1 μM (%)) [6]: <5%
Response (1.0 μM (%)) [7]: 27%
Response (10 μM (%)) [8]: 67%

Other lines, results leading:

EC50 [1]: 300 nM
Emax [2]: 94%
Response (0.1 μM (%)) [3]: <5%
Response (1.0 μM (%)) [4]: 55%
Response (10 μM (%)) [5]: 94%
Structure (SMILES): COc1ccc(-c2cccc(C(=O)N(C)C)c2)cc1S(=O)(=O)Nc1cccc(NCCNC(=O)c2ccccc2F)c1 [Example 43, 3′-(N-(3-((2-(2-fluorobenzamido)ethyl)amino)phenyl)sulfamoyl)-4′-methoxy-N,N-dimethyl-[1,1′-biphenyl]-3-carboxamide]

EC50 [1]: 800 nM
Emax [2]: 54%
Response (0.1 μM (%)) [6]: <5%
Response (1.0 μM (%)) [7]: 16%
Response (10 μM (%)) [8]: 73%
Structure (SMILES): COc1cccc(C(=O)NCCNc2cccc(NS(=O)(=O)c3cc(-c4cccc(Cl)c4)ccc3OC)c2)c1 [Example 29, N-(2-((3-(3′-chloro-4-methoxy-[1,1′-biphenyl]-3-ylsulfonamide)phenyl)amino)ethyl)-3-methoxybenzamide]

Response (0.1 μM (%)) [3]: 42%
Response (1.0 μM (%)) [4]: 90%
Response (10 μM (%)) [5]: 80%
Structure (SMILES): COc1ccc(-c2cccc(C(=O)N3CCCC3)c2)cc1S(=O)(=O)Nc1cccc(NCCNC(=O)c2ccccc2Cl)c1 [Example 87, 2-chloro-N-(2-((3-(4-methoxy-3′-(pyrrolidine-1-carbonyl)-[1,1′-biphenyl]-3-ylsulfonamido)phenyl)amino)ethyl)benzamide]

EC50 [1]: 783 nM
Emax [2]: 84%
Response (0.1 μM (%)) [3]: 40%
Response (1.0 μM (%)) [4]: 79%
Response (10 μM (%)) [5]: 64%
Structure (SMILES): COc1ccc(-c2cccc(C(=O)N(C)C)c2)cc1S(=O)(=O)Nc1cccc(NCCNC(=O)c2cccc(F)c2)c1 [Example 52, 3′-(N-(3-((2-(3-fluorobenzamido)ethyl)amino)phenyl)sulfamoyl)-4′-methoxy-N,N-dimethyl-[1,1′-biphenyl]-3-carboxamide]

Response (0.1 μM (%)) [6]: <5%
Response (1.0 μM (%)) [7]: <5%
Response (10 μM (%)) [8]: <5%
Structure (SMILES): COc1ccccc1C(=O)NCCNc1cccc(NS(=O)(=O)c2cc(-c3c(F)cccc3OC)ccc2OC)c1 [Example 23, N-(2-((3-(2′-fluoro-4,6′-dimethoxy-[1,1′-biphenyl]-3-ylsulfonamide)phenyl)amino)ethyl)-2-methoxybenzamide]

Response (0.1 μM (%)) [3]: 93%
Response (1.0 μM (%)) [4]: 96%
Response (10 μM (%)) [5]: 97%
Structure (SMILES): COc1ccc(-c2cccc(C(=O)N3CCCC3)c2)cc1S(=O)(=O)Nc1cccc(NCCNC(=O)c2sccc2Cl)c1 [Example 89, 3-chloro-N-(2-((3-(4-methoxy-3′-(pyrrolidine-1-carbonyl)-[1,1′-biphenyl]-3-ylsulfonamido)phenyl)amino)ethyl)thiophene-2-carboxamide]

Response (0.1 μM (%)) [6]: 65%
Response (1.0 μM (%)) [7]: 79%
Response (10 μM (%)) [8]: 82%
Structure (SMILES): COc1ccccc1C(=O)NCCNc1cccc(NS(=O)(=O)c2cc(-c3cccc(C(=O)N(C)C)c3)ccc2F)c1 [Example 107, 4′-fluoro-3′-(N-(3-((2-(2-methoxybenzamido)ethyl)amino)phenyl)sulfamoyl)-N,N-dimethyl-[1,1′-biphenyl]-3-carboxamide]

Response (0.1 μM (%)) [6]: 13%
Response (1.0 μM (%)) [7]: 46%
Response (10 μM (%)) [8]: 47%
Structure (SMILES): COc1ccccc1C(=O)NCCNc1cccc(NS(=O)(=O)c2cc(-c3cccc(F)c3)ccc2OC)c1 [Example 109, N-(2-((3-(3′-fluoro-4-methoxy-[1,1′-biphenyl]-3-ylsulfonamido)phenyl)amino)ethyl)-2-methoxybenzamide]

EC50 [1]: 102 nM
Emax [2]: 99%
Response (0.1 μM (%)) [3]: 71%
Response (1.0 μM (%)) [4]: 92%
Response (10 μM (%)) [5]: 94%
Structure (SMILES): COc1ccc(-c2cccc(C(=O)N(C)C)c2)cc1S(=O)(=O)Nc1cccc(NCCNC(=O)c2sccc2Cl)c1 [Example 62, 3-chloro-N-(2-((3-(3′-(dimethylcarbamoyl)-4-methoxy-[1,1′-biphenyl]-3-ylsulfonamido)phenyl)amino)ethyl)thiophene-2-carboxamide]
